Test results from PubChem BioAssay (NCI).
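Briefly, cells in 96-well plates were exposed to five compound concentrations for 48 h, and endpoints were estimated by linear interpolation. TGI: concentration producing complete growth inhibition.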

Key:
Assay in all cases: inhibition of tumour cell growth, NCI panel, 48 h
CCRF-CEM leukemia = test system: CCRF-CEM leukemia
DU-145 prostate = test system: DU-145 prostate
MALME-3M melanoma = test system: MALME-3M melanoma
MCF7 breast = test system: MCF7 breast
MDA-MB-231 breast = test system: MDA-MB-231 breast
NCI-H23 lung = test system: NCI-H23 lung
PC-3 prostate = test system: PC-3 prostate
SF-539 CNS = test system: SF-539 CNS
UACC-257 melanoma = test system: UACC-257 melanoma
M14 melanoma = test system: M14 melanoma

In the case of `Nc1[nH]nc2nc3ccccc3nc12`, the TGI (CCRF-CEM leukemia) was > 100 µM, the TGI (DU-145 prostate) was > 100 µM and the TGI (MALME-3M melanoma) was > 100 µM. The TGI (MCF7 breast) was > 100 µM, the TGI (MDA-MB-231 breast) was > 100 µM and the TGI (NCI-H23 lung) was > 100 µM. For the same molecule, the TGI (PC-3 prostate) was > 100 µM, the TGI (SF-539 CNS) was > 100 µM and the TGI (UACC-257 melanoma) was > 100 µM.
`CC(C)(C)OC(=O)CN1CCNCCN(CC(=O)OC(C)(C)C)CCNCC1` was tested, and the TGI (CCRF-CEM leukemia) was > 100 µM, the TGI (DU-145 prostate) was > 100 µM and the TGI (MCF7 breast) was > 100 µM. For the same molecule, the TGI (MDA-MB-231 breast) was > 100 µM, the TGI (PC-3 prostate) was > 100 µM and the TGI (SF-539 CNS) was > 100 µM. For the same molecule, the TGI (UACC-257 melanoma) was > 100 µM.
`COc1c2c(c3ccccc3c1O)C1C=CC2C1` (stereo not drawn) was tested, and the TGI (CCRF-CEM leukemia) was 97.6 µM, the TGI (M14 melanoma) was 27.9 µM and the TGI (MALME-3M melanoma) was 18.8 µM. It also gave a TGI (NCI-H23 lung) of 28.9 µM and a TGI (SF-539 CNS) of 29 µM.
`CC(C)=CCc1[nH]c2ccccc2c1C1=C(O)C(=O)C(c2c(CC=C(C)C)[nH]c3ccccc23)=C(O)C1=O` gave a TGI (CCRF-CEM leukemia) of 6.83 µM, a TGI (DU-145 prostate) of 10.9 µM and a TGI (M14 melanoma) of 15.6 µM. The TGI (MALME-3M melanoma) was 4.5 µM, the TGI (MCF7 breast) was 9.4 µM and the TGI (MDA-MB-231 breast) was 3.38 µM. For the same molecule, the TGI (NCI-H23 lung) was 5.87 µM, the TGI (PC-3 prostate) was 4.72 µM and the TGI (UACC-257 melanoma) was 6.95 µM.
For `CC(=O)Oc1ccc2c(c1)CC[C@@H]1C2[C@@H](O[N+](=O)[O-])C[C@@]2(C)C1CC[C@@H]2O[N+](=O)[O-]` (stereo partly drawn), the TGI (CCRF-CEM leukemia) was 38.8 µM, the TGI (DU-145 prostate) was 28.3 µM and the TGI (M14 melanoma) was 31.6 µM. It also gave a TGI (MALME-3M melanoma) of 28.8 µM, a TGI (MCF7 breast) of 22.4 µM and a TGI (NCI-H23 lung) of 29.2 µM. The TGI (PC-3 prostate) was 22.9 µM, the TGI (SF-539 CNS) was 35.9 µM and the TGI (UACC-257 melanoma) was 25.9 µM.
In the case of `CC(C)=CCC/C(C)=C/COc1c2ccoc2cc2oc(=O)ccc12`, the TGI (CCRF-CEM leukemia) was 50.2 µM, the TGI (M14 melanoma) was 89.1 µM and the TGI (MALME-3M melanoma) was 99.6 µM. For the same molecule, the TGI (MCF7 breast) was 61.4 µM, the TGI (MDA-MB-231 breast) was 86.5 µM and the TGI (NCI-H23 lung) was > 100 µM. For the same molecule, the TGI (PC-3 prostate) was > 100 µM, the TGI (SF-539 CNS) was > 100 µM and the TGI (UACC-257 melanoma) was 90.4 µM.
For `Cc1sc2c(c1C)/C(=N\O)c1cccn1-2`, the TGI (CCRF-CEM leukemia) was > 100 µM, the TGI (DU-145 prostate) was > 100 µM and the TGI (M14 melanoma) was > 100 µM. The TGI (MALME-3M melanoma) was > 100 µM, the TGI (MCF7 breast) was > 100 µM and the TGI (MDA-MB-231 breast) was > 100 µM. For the same molecule, the TGI (PC-3 prostate) was > 100 µM and the TGI (UACC-257 melanoma) was > 100 µM.
`O=C(/C=C/c1cccc(Oc2ccccc2)c1)NCc1ccc(C(=O)NCCc2ccccc2)cc1` was tested, and the TGI (DU-145 prostate) was > 100 µM, the TGI (M14 melanoma) was > 100 µM and the TGI (MALME-3M melanoma) was > 100 µM. The TGI (MCF7 breast) was > 100 µM, the TGI (MDA-MB-231 breast) was > 100 µM and the TGI (NCI-H23 lung) was > 100 µM. The TGI (PC-3 prostate) was > 100 µM, the TGI (SF-539 CNS) was > 100 µM and the TGI (UACC-257 melanoma) was > 100 µM.
`O=C(O)c1ccc(C2=Cc3cc(Cl)ccc3OC2)cc1` was tested, and the TGI (CCRF-CEM leukemia) was > 100 µM, the TGI (M14 melanoma) was > 100 µM and the TGI (MALME-3M melanoma) was > 100 µM. For the same molecule, the TGI (NCI-H23 lung) was > 100 µM, the TGI (SF-539 CNS) was > 100 µM and the TGI (UACC-257 melanoma) was > 100 µM.
For `CC(=O)Oc1c2c(c3n(c1=O)CCCC3)C(=O)N(c1ccccc1)C2=O`, the TGI (CCRF-CEM leukemia) was > 100 µM, the TGI (DU-145 prostate) was > 100 µM and the TGI (M14 melanoma) was > 100 µM. The TGI (MALME-3M melanoma) was > 100 µM, the TGI (MCF7 breast) was > 100 µM and the TGI (MDA-MB-231 breast) was > 100 µM. For the same molecule, the TGI (NCI-H23 lung) was > 100 µM, the TGI (PC-3 prostate) was > 100 µM and the TGI (SF-539 CNS) was > 100 µM.
In the case of `O=c1ccn(C2OC(CO)C(O)C2F)c(=O)n1Cc1ccccc1` (stereo not drawn), the TGI (CCRF-CEM leukemia) was > 100 µM, the TGI (DU-145 prostate) was > 100 µM and the TGI (MALME-3M melanoma) was > 100 µM. The TGI (MCF7 breast) was > 100 µM, the TGI (MDA-MB-231 breast) was > 100 µM and the TGI (NCI-H23 lung) was > 100 µM. For the same molecule, the TGI (PC-3 prostate) was > 100 µM, the TGI (SF-539 CNS) was > 100 µM and the TGI (UACC-257 melanoma) was > 100 µM.
With `COC(=O)N[C@H](C(=O)O)C(C)O[Si](C)(C)C(C)(C)C` (stereo partly drawn) the TGI (CCRF-CEM leukemia) was > 100 µM, the TGI (DU-145 prostate) was > 100 µM and the TGI (MALME-3M melanoma) was > 100 µM. The TGI (MCF7 breast) was > 100 µM, the TGI (MDA-MB-231 breast) was > 100 µM and the TGI (NCI-H23 lung) was > 100 µM. For the same molecule, the TGI (PC-3 prostate) was > 100 µM, the TGI (SF-539 CNS) was > 100 µM and the TGI (UACC-257 melanoma) was > 100 µM.
